The results in this text go back to PubChem BioAssay AID1399 (The Scripps Research Institute Molecular Screening Center, 2008).

The term IC50 denotes the concentration that inhibits the measured activity by half.

In this experiment the target is Signal transducer and activator of transcription 3 (Homo sapiens) (UniProt P40763). Description: blockers of STAT3 signaling, concentration series – cell-based, dose response (AID 1399). The conditions noted are these: human cell STAT3 reporter inhibition.
Consider `C[C@H]1O[C@@H](O[C@H]2[C@@H](O)C[C@H](O[C@H]3[C@@H](O)C[C@H](O[C@H]4CC[C@@]5(C)[C@H](CC[C@@H]6[C@@H]5C[C@@H](O)[C@]5(C)[C@@H](C7=CC(=O)OC7)CC[C@]65O)C4)O[C@@H]3C)O[C@@H]2C)C[C@H](O)[C@@H]1O`, for which the IC50 is 1.86 µM.

As for `O=C(NC1CC1)c1cc2c(s1)-c1ccccc1OC2`, the 50% inhibitory concentration (IC50) was 3.83 µM.

As for `COc1ccc(-c2nn(C)c(=O)c3ccccc23)cc1NC(=O)COc1ccc(C)cc1`, the IC50 is 5.06 µM.

As for `O=C(Nc1ccncc1)c1ccc2c(c1)C(=O)N(C1CCCCC1)C2=O`, the IC50 is 2.42 µM.

In the case of `c1ccc(C(Cc2nc(-c3ccncc3)no2)c2ccccc2)cc1`, the concentration for half-maximal inhibition (IC50) is 5.05 µM.

In the case of `CCCNC(=O)c1ccc(-c2nc3ccccc3s2)s1`, the half-inhibitory concentration (IC50) was 5.06 µM.

Turning to `O=C(Nc1nc(-c2ccc(Cl)s2)cs1)c1ccncc1`, the concentration for half-maximal inhibition (IC50) is 4.01 µM.

For the compound `Cc1ccc(-n2nnnc2SCn2nnc3ccccc3c2=O)c(C)c1`, the IC50 is 5.32 µM.

`O=C(Nc1ccc(N2CCN(C(=O)c3ccco3)CC2)c(Cl)c1)c1cc2ccccc2o1`: the IC50 was 8.95 µM.

`CCc1c(C)c2ccc(OCC(=O)OC(C)C)c(C)c2oc1=O`: the half-maximal inhibitory concentration (IC50) is 6.19 µM.

Turning to `COc1cc(OC)cc(C(=O)Nc2nnc(NC(=S)Nc3ccccc3)s2)c1`, the half-inhibitory concentration (IC50) was 3.91 µM.

Regarding `O=C1C2C3c4ccccc4C(c4ccccc43)C2c2nc3ccccc3n21` (stereo not drawn), the 50% inhibitory concentration (IC50) was 3.23 µM.

Consider `COc1ccc2nc3c(cc2c1)c(NC(=O)c1cccs1)nn3CC(C)C`, for which the IC50 is 3.75 µM.

With `Oc1ccc(-c2n[nH]c(=S)n2-c2ccc3c(c2)OCCO3)c(O)c1`, the IC50 was 5.37 µM.

With `O=C(Nc1ccc(N2CCOCC2)nc1)c1ccc(C(F)(F)F)cc1`, the IC50 was 3.4 µM.

Turning to `Cc1nc2sccn2c1-c1csc(NCc2ccccc2)n1`, the IC50 is 4.37 µM.

Take `Cc1cccc(C)c1NC(=O)N1CCN(c2nc3ccccc3s2)CC1`: the IC50 was 4.48 µM.

On to `C[C@H]1O[C@@H](O[C@H]2[C@@H](O)C[C@H](O[C@H]3[C@@H](O)C[C@H](O[C@H]4CC[C@@]5(C)[C@H](CC[C@@H]6[C@@H]5CC[C@]5(C)[C@@H](C7=CC(=O)OC7)CC[C@]65O)C4)O[C@@H]3C)O[C@@H]2C)C[C@H](O)[C@@H]1O`, for which the IC50 is 0.7 µM.
